What was measured:
[1] = target: T1, PilF159-302 Q218E (Thermus thermophilus, UniProt Q72H73, Q218E); assay: ITC c-di-GMP binding to Q218E mutant, pH series; details: 20 °C
T1 sequence (Q72H73 159-302 Q218E): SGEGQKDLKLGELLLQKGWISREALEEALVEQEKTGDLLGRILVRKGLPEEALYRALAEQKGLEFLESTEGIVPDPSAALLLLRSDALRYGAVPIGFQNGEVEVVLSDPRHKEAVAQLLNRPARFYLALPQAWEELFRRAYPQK
Excerpt: To characterize c-di-GMP binding by PilF159-302, the Q190E and Q218E constructs via isothermal titration calorimetry (ITC) and X-ray crystallography unlabeled c-di-GMP was synthesized using a constitutively active mutant of a diguanylate cyclase from the thermophilic bacterium Thermogata maritima ^[4^4,4^5]. For NMR experiments ^13C,^15N labelled c-di-GMP was synthesized identically using ^13C,^15N labelled GTP as a substrate.
c-di-GMP binding capabilities of PilF159-302, its mutant constructs PilF159-302 Q190E and PilF159-302 Q218E at varying pH-values were investigated by isothermal titration calorimetry (ITC) experiments in triplicate. All measurements were conducted at 20 °C using a MicroCal ITC200 (Malvern Panalytical, UK). For PilF159-302 Q190E and PilF159-302 Q218E ITC-measurements were conducted in a pH range from pH 8.5 – 4.0 with the buffering agent adjusted to the respective pH-range. For the pH-range 8.5 – 7.5 a sample buffer of 50 mM Tris, 200 mM NaCl and 1 mM β-Me was used. For pH values 7.0 – 6.0 a sample buffer of 50 mM BisTris, 200 mM NaCl, 1 mM β-Me and for pH 5.5 – 4.0 a sample buffer of 50 mM NaAc, 200 mM NaCl, 1 mM β-Me was used. For reference PilF159-302 was titrated with c-di-GMP at pH 8.5 in 50 mM Tris pH 8.5, 200 mM NaCl, 1 mM β-Me and at pH 4.0 in 50 mM NaAc pH 4.0, 200 mM NaCl, 1 mM β-Me. In order to test whether the buffer reagents have an influence on the measured thermodynamic parameters, cross measurements were performed in the region of the pH transitions. To this end, additional measurements with BisTris at pH 7.5 and 5.5, with Tris at pH 7.0 and with NaAc at pH 6.0 were carried out as singlets. The buffer agents had no influence on measured KD-values and resulted only in small changes of the ΔH values. All protein samples were dialyzed two times against 500 ml of the respective sample buffer (1 L in total) at 4 °C for at least 16 hours per step using a dialysis chamber with a nominal 3.5 kDa molecular weight cutoff (ZelluTrans, ROTH). To prepare the ITC-measurements protein and c-di-GMP sample were adjusted to the respective concentration using the dialysis buffer. Protein and c-di-GMP concentration ranged from 20 to 50 µM (protein) and 200 to 500 µM (c-di-GMP) depending on the c-di-GMP binding capabilities at the different pH-values to optimize precision of the measurements. For pH 8.5 – 7.0 a protein concentration of 50 µM with 500 µM c-di-GMP was used. For pH 6.5 – 5.0 a protein concentration of 30 µM with 300 µM c-di-GMP and for pH 4.5 – 4.0 a protein concentration of 20 µM with 200 µM c-di-GMP was used. The following protocol was utilized for each measurement. To 270 µl protein a total of 40 µl c-di-GMP was titrated in 21 injections with a duration of 4 s in intervals of 180 s with a stirring speed of 750 rpm. The first injection of 0.2 µl c-di-GMP with a duration of 0.4 s was carried out after an initial delay of 120 s, which was followed by 20 injections of 2 µl each with a duration of 4 s. During the measurement, the feedback mode was set to high and the reference power to 11 µcal s^-1. All thermograms were processed using Origin 7.0 (OriginLab) using the one-site binding model.

[2] = target: T2, PilF159-302 WT (Thermus thermophilus, UniProt Q72H73); parameters: method as in PMID 39615687; details: GSPII-B (PilF159-302) four-helix bundle; cited from earlier work
T2 sequence (Q72H73 159-302): T1 sequence (Q72H73 159-302 Q218E)

[3] = target: T3, PilF159-302 Q190E (Thermus thermophilus, UniProt Q72H73, Q190E); parameters: method as in PMID 39615687; details: in vitro, pH 7.5; cited from earlier work
T3 sequence (Q72H73 159-302 Q190E): T1 sequence (Q72H73 159-302 Q218E)

[4] = target: T1, PilF159-302 Q218E; parameters: method as in PMID 39615687; details: in vitro, pH 7.5; cited from earlier work
[5] = system: GSPII-B domain Q190E Q218E double mutant; parameters: method as in PMID 39615687; details: in vitro, pH 7.5; cited from earlier work

SMILES: Nc1nc2c(ncn2C2OC3COP(=O)(O)OC4C(COP(=O)(O)OC3C2O)OC(n2cnc3c(=O)[nH]c(N)nc32)C4O)c(=O)[nH]1 (stereo not drawn) [c-di-GMP]
- -TΔS ([1]; Bis-Tris, pH 6.0): -2.23 ± 0.80 kcal/mol
- Kd ([1]; Bis-Tris, pH 6.0): 64 ± 7 nM
- N ([1]; Bis-Tris, pH 6.0): 1.03 ± 0.23
- ΔG ([1]; Bis-Tris, pH 6.0): -9.64 ± 0.06 kcal/mol
- ΔH ([1]; Bis-Tris, pH 6.0): -7.42 ± 0.75 kcal/mol
- -TΔS ([1]; Bis-Tris, pH 6.5): -1.48 ± 0.23 kcal/mol
- Kd ([1]; Bis-Tris, pH 6.5): 110 ± 3 nM
- N ([1]; Bis-Tris, pH 6.5): 1.00 ± 0.27
- ΔG ([1]; Bis-Tris, pH 6.5): -9.33 ± 0.02 kcal/mol
- ΔH ([1]; Bis-Tris, pH 6.5): -7.86 ± 0.22 kcal/mol
- -TΔS ([1]; Bis-Tris, pH 7.0): -2.05 ± 0.07 kcal/mol
- Kd ([1]; Bis-Tris, pH 7.0): 249 ± 7 nM
- N ([1]; Bis-Tris, pH 7.0): 0.90 ± 0.16
- ΔG ([1]; Bis-Tris, pH 7.0): -8.85 ± 0.02 kcal/mol
- ΔH ([1]; Bis-Tris, pH 7.0): -6.80 ± 0.08 kcal/mol
- Kd ([1]; Na-Acetate, pH 4.0): 23 ± 10 nM
- N ([1]; Na-Acetate, pH 4.0): 0.84 ± 0.07
- -TΔS ([1]; Na-Acetate, pH 4.5): -2.56 ± 0.49 kcal/mol
- Kd ([1]; Na-Acetate, pH 4.5): 61 ± 7 nM
- N ([1]; Na-Acetate, pH 4.5): 0.90 ± 0.04
- ΔG ([1]; Na-Acetate, pH 4.5): -9.68 ± 0.07 kcal/mol
- ΔH ([1]; Na-Acetate, pH 4.5): -7.12 ± 0.44 kcal/mol
- -TΔS ([1]; Na-Acetate, pH 5.0): -1.47 ± 0.47 kcal/mol
- Kd ([1]; Na-Acetate, pH 5.0): 36 ± 8 nM
- N ([1]; Na-Acetate, pH 5.0): 1.31 ± 0.09
- ΔG ([1]; Na-Acetate, pH 5.0): -9.99 ± 0.13 kcal/mol
- ΔH ([1]; Na-Acetate, pH 5.0): -8.53 ± 0.44 kcal/mol
- -TΔS ([1]; Na-Acetate, pH 5.5): -0.40 ± 1.00 kcal/mol
- Kd ([1]; Na-Acetate, pH 5.5): 28 ± 10 nM
- N ([1]; Na-Acetate, pH 5.5): 0.97 ± 0.09
- ΔG ([1]; Na-Acetate, pH 5.5): -10.17 ± 0.20 kcal/mol
- ΔH ([1]; Na-Acetate, pH 5.5): -9.78 ± 0.92 kcal/mol
- -TΔS ([1]; Tris, pH 7.5): -3.22 ± 0.17 kcal/mol
- Kd ([1]; Tris, pH 7.5): 342 ± 26 nM
- N ([1]; Tris, pH 7.5): 0.92 ± 0.07
- ΔG ([1]; Tris, pH 7.5): -8.67 ± 0.04 kcal/mol
- ΔH ([1]; Tris, pH 7.5): -5.45 ± 0.13 kcal/mol
- -TΔS ([1]; Tris, pH 8.0): 0.99 ± 0.27 kcal/mol
- Kd ([1]; Tris, pH 8.0): 432 ± 25 nM
- N ([1]; Tris, pH 8.0): 1.12 ± 0.05
- ΔG ([1]; Tris, pH 8.0): -8.53 ± 0.03 kcal/mol
- ΔH ([1]; Tris, pH 8.0): -9.52 ± 0.31 kcal/mol
- -TΔS ([1]; Tris, pH 8.5): 2.15 ± 0.18 kcal/mol
- Kd ([1]; Tris, pH 8.5): 463 ± 13 nM
- N ([1]; Tris, pH 8.5): 0.73 ± 0.14
- ΔG ([1]; Tris, pH 8.5): -8.49 ± 0.02 kcal/mol
- ΔH ([1]; Tris, pH 8.5): -10.65 ± 0.16 kcal/mol
- Kd [2]: ~6 nM
- c-di-GMP binding affinity relative to WT [3]: significantly reduced affinity
- c-di-GMP binding affinity relative to WT [4]: significantly reduced affinity
- c-di-GMP binding [5]: did not bind

Source: PMC12207366, “Protonated Glutamate and Aspartate Side Chains Can Recognize Phosphodiester Groups via Strong and Short Hydrogen Bonds in Biomacromolecular Complexes” (Angewandte Chemie (International Ed. in English), 2025)
